{
  "source": "paper PMC9424684",
  "about": "“Z1456467176 alleviates gouty arthritis by allosterically modulating P2X7R to inhibit NLRP3 inflammasome activation” (Frontiers in Pharmacology, 2022)",
  "target": "T1, hP2X7R (purinergic receptor P2X7, P2X7R) (Homo sapiens, UniProt Q99572)",
  "T1 construct": "gene P2RX7; homotrimer",
  "T1 sequence (Q99572 1-595)": "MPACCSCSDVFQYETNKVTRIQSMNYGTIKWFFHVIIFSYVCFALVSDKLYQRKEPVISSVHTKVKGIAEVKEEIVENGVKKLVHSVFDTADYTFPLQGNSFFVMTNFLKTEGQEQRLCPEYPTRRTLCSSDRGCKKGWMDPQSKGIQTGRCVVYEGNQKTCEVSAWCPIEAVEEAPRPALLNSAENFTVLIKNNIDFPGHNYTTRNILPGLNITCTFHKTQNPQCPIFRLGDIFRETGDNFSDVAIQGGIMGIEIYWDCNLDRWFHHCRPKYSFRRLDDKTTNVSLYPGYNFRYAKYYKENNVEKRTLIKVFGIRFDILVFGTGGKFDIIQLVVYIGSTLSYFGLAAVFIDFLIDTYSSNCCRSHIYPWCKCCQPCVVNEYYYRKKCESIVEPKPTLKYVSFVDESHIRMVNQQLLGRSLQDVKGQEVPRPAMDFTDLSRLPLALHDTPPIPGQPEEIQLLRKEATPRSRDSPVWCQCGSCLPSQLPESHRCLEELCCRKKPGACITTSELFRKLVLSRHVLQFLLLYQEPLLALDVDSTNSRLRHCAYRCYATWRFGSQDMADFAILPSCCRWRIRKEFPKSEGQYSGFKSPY",
  "assay": "ethidium bromide uptake (pore formation), flow cytometry, HEK-293T cells",
  "format": "cell-based",
  "settings": "read-out: EB uptake IC50",
  "note": "Structures can show the parent of a compound that is named as a salt.",
  "data": [
    {"smiles": "CC(Cc1cccc(C(F)(F)F)c1)C(=O)Nc1cccc(S(=O)(=O)NCCN)c1", "note": "(stereo not shown) [Z1456467176, N-{3-[(2-aminoethyl)sulfamoyl]phenyl}-2-methyl-3-[3-(trifluoromethyl)phenyl] propanamide hydrochloride]", "values": [
      {"measurement": "IC50", "result": 3.42, "unit": "µM"}
    ]}
  ]
}
